Here are results for 11 compounds from patent US12077503B2, “Substituted cyclic amides and their use as herbicides” (FMC CORPORATION, priority 2015, dated 2024).

What all share (assay type): in vivo
The test system of assay [1] is wheat (Triticum aestivum). Description: Test A postemergence. The following applies: Triticum aestivum, post-emergence, 240 h; for plant injury at 125 g/ha: 125 g ai/ha. A digest of the protocol: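 Compounds were formulated in a non-phytotoxic solvent mixture with surfactant and applied as a preemergence directed soil spray after seeding, or sprayed postemergence over plants 2 to 10 cm tall at the one- to two-leaf stage. Evaluation after about 10 d compared treated with untreated controls, using a scale from 0 (no effect) to 100 (complete control).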

For assay [2], the system named is barnyardgrass (Echinochloa crus-galli). Description: Test B flooded paddy test. The following applies: Echinochloa crus-galli, Flood, 250 g ai/ha. A digest of the protocol:
(§1)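 Flooding to 3 cm over soil accompanied treatment, which consisted of adding compound to the standing water around 2-leaf plants; depth was then maintained. Visual assessment versus controls followed at 13 to 15 d (scale 0–100, 0 meaning no effect).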

Assay [3] relates to ducksalad (Heteranthera limosa). Description: Test B flooded paddy test. The following applies: Heteranthera limosa, Flood, 250 g ai/ha. A digest of the protocol: as §1
Assay [4] deals with rice (Oryra sativa). Kind of assay: Test B flooded paddy test. The settings on record: Oryza sativa, Flood, 250 g ai/ha. A digest of the protocol:
as §1

Assay [5] concerns sedge, umbrella (small-flower umbrella sedge, Cyperus difformis). Description: Test B flooded paddy test. The settings on record: Cyperus difformis, Flood, 250 g ai/ha. A digest of the protocol:
as §1

Assay [6] has as its system barnyardgrass (Echinochloa crus-galli). Description: Test G Pre-Emergence Protocol. The following applies: Echinochloa crus-galli, pre-emergence, 312 h, evaluated after 13 days; for pest or weed control at 15.625 g/ha: 15.625 g ai/ha, read-out: Barnyard grass damage rating (100=total damage to plant; 0=no damage to plant); for pest or weed control at 62.5 g/ha: 62.5 g ai/ha, 100=total damage to plant, 0=no damage to plant, read-out: plant damage rating, Barnyardgrass; for pest or weed control at 250 g/ha: 250 g ai/ha, read-out: Barnyardgrass damage rating (100=total damage to plant; 0=no damage to plant). A digest of the protocol:
(§2)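 Herbicidal effect was rated 13 days post-application on a scale where 100 equals total damage. Spraying took place the day after sowing, using 15.625, 62.5 or 250 g/ha of compound in a 50:50 acetone/water solution with 0.5% Tween 20.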

The subject of assay [7] is corn (Zea mays). Description: Test G Pre-Emergence Protocol. The following applies: Zea mays, pre-emergence, 312 h, evaluated after 13 days; for plant injury at 15.625 g/ha: 15.625 g ai/ha; for plant injury at 15.625 g/ha / plant injury at 250 g/ha: read-out: Corn damage rating (100=total damage to plant; 0=no damage to plant); for plant injury at 62.5 g/ha: 62.5 g ai/ha, 100=total damage to plant, 0=no damage to plant, read-out: plant damage rating, Corn; for plant injury at 250 g/ha: 250 g ai/ha. A digest of the protocol: as §2

Assay [8] deals with giant foxtail (Setaria faberi). Kind of assay: Test G Pre-Emergence Protocol. The settings on record: Setaria faberi, pre-emergence, 312 h, evaluated after 13 days; for pest or weed control at 15.625 g/ha: 15.625 g ai/ha; for pest or weed control at 15.625 g/ha / pest or weed control at 250 g/ha: read-out: Foxtail, Giant damage rating (100=total damage to plant; 0=no damage to plant); for pest or weed control at 62.5 g/ha: 62.5 g ai/ha, 100=total damage to plant, 0=no damage to plant, read-out: plant damage rating, Foxtail, Giant; for pest or weed control at 250 g/ha: 250 g ai/ha. A digest of the protocol:
as §2

For assay [9], the system named is ivy-leaved morning glory (Ipomoea hederacea). Description: Test G Pre-Emergence Protocol. The settings on record: Ipomoea, pre-emergence, 312 h, evaluated after 13 days; for pest or weed control at 62.5 g/ha: 62.5 g ai/ha, 100=total damage to plant, 0=no damage to plant, read-out: plant damage rating, Morningglory, Ivy-leaved; for pest or weed control at 250 g/ha: 250 g ai/ha, read-out: Morningglory, Ivy-leaved damage rating (100=total damage to plant; 0=no damage to plant). A digest of the protocol:
as §2

For assay [10], the system named is redroot pigweed (Amaranthus retroflexus). Description: Test G Pre-Emergence Protocol. The following applies: Amaranthus retroflexus, pre-emergence, 312 h, evaluated after 13 days; for pest or weed control at 15.625 g/ha: 15.625 g ai/ha; for pest or weed control at 15.625 g/ha / pest or weed control at 250 g/ha: read-out: Pigweed, Redroot damage rating (100=total damage to plant; 0=no damage to plant); for pest or weed control at 62.5 g/ha: 62.5 g ai/ha, 100=total damage to plant, 0=no damage to plant, read-out: plant damage rating, Pigweed, Redroot; for pest or weed control at 250 g/ha: 250 g ai/ha. A digest of the protocol:
as §2

Assay [11] has as its system velvetleaf (Abutilon theophrasti). Kind of assay: Test G Pre-Emergence Protocol. The following applies: Abutilon theophrasti, pre-emergence, 312 h, evaluated after 13 days; for pest or weed control at 15.625 g/ha: 15.625 g ai/ha; for pest or weed control at 15.625 g/ha / pest or weed control at 250 g/ha: read-out: Velvetleaf damage rating (100=total damage to plant; 0=no damage to plant); for pest or weed control at 62.5 g/ha: 62.5 g ai/ha, 100=total damage to plant, 0=no damage to plant, read-out: plant damage rating, Velvetleaf; for pest or weed control at 250 g/ha: 250 g ai/ha. A digest of the protocol:
as §2

[12] abbreviates: postemergence, visual injury after approximately 10 d, 0 to 100 scale (0 no effect, 100 complete control), read-out: Plant response rating, Wheat.
Where [13] appears, read: scale of 0 to 100 where 0 is no effect and 100 is complete control, read-out: Barnyardgrass plant response rating.
Setting [14] is: scale of 0 to 100 where 0 is no effect and 100 is complete control, read-out: Ducksalad plant response rating.
The mark [15] stands for this setting: scale of 0 to 100 where 0 is no effect and 100 is complete control, read-out: Rice plant response rating.
Where [16] appears, read: scale of 0 to 100 where 0 is no effect and 100 is complete control, read-out: Sedge, Umbrella plant response rating.

Molecules are shown by their SMILES. Read-outs that look alike come from different tables or passages of the source.

With `CN1C[C@H](c2ccc(C#N)cc2)[C@@H](C(=O)Nc2cccc(F)c2F)C1=O` (racemic) [Compound 775], the plant injury at 125 g/ha in assay [1] (setting [12]) was found to be 20%. For the same compound, the pest or weed control at 250 g/ha amounted to 35% in [2] (setting [13]), 75% in [3] (setting [14]), 0% in [4] (setting [15]) and 65% in assay [5] (setting [16]).

Regarding `CN1C[C@H](c2cccc(S(C)(=O)=O)c2)[C@@H](C(=O)Nc2cccc(F)c2F)C1=O` (racemic) [Compound 777], the plant injury at 125 g/ha in assay [1] (setting [12]) turned out to be 30%. Also, the pest or weed control at 250 g/ha in assay [2] (setting [13]) was found to be 30%; in assay [3] (setting [14]), 0%; in [4] (setting [15]) it was 20%; in [5] (setting [16]) it was 0%.

For `CO[C@]1(C(=O)Nc2cccc(F)c2F)C(=O)N(C)C[C@@H]1c1ccc(C(F)(F)F)cc1` (racemic) [Compound 1334], the plant injury at 125 g/ha in assay [1] (Postemergence, visual rating about 10 d after treatment, read-out: Wheat plant response rating (0 to 100 scale)) is 0%. Moreover, the plant injury at 500 g/ha in assay [1] (Postemergence, 500 g ai/ha, visual injury, 0 to 100 scale (0 no effect, 100 complete control), approx. 10 d, read-out: Plant response rating, Wheat) came out at 0%. Besides, the pest or weed control at 250 g/ha in assay [2] (360 h, visually evaluated after 13 to 15 d, read-out: Plant response rating, Barnyardgrass (0 to 100 scale where 0 is no effect and 100 is complete control)) is 0%; in [3] (360 h, visually evaluated after 13 to 15 d, read-out: Plant response rating, Ducksalad (0 to 100 scale where 0 is no effect and 100 is complete control)), 90%; in [4] (360 h, visually evaluated after 13 to 15 d, read-out: Plant response rating, Rice (0 to 100 scale where 0 is no effect and 100 is complete control)) it was 0%; in [5] (360 h, visually evaluated after 13 to 15 d, read-out: Plant response rating, Sedge, Umbrella (0 to 100 scale where 0 is no effect and 100 is complete control)), 0%.

As to `CN1C[C@@H](c2ccc(C(F)(F)F)cc2)[C@H](C(=O)Nc2cnccc2Cl)C1=O` (racemic) [Compound 1541], the pest or weed control at 15.625 g/ha was found to be 0% in assay [6]; 0% in assay [8]; 0% in [9] (15.625 g ai/ha, read-out: Morning-glory, Ivy-leaved damage rating (100=total damage to plant; 0=no damage to plant)); 0% in assay [10]; 0% in assay [11]. The pest or weed control at 62.5 g/ha in [6], in assay [8], in [9], in [10] and in assay [11] was 0% each time. Also, the pest or weed control at 250 g/ha in [6] came to 30%; in [8], 70%; in assay [9], 0%; in [10] it was 40%; in assay [11] it was 0%. Moreover, the plant injury at 15.625 g/ha in assay [7] was found to be 0%. Further, the plant injury at 62.5 g/ha in [7] is 0%. The plant injury at 250 g/ha in [7] was determined as 10%.

As for `CN1C[C@@H](c2ccc(C(F)(F)F)cc2)[C@H](C(=O)Nc2ccc(C(F)(F)F)nc2Cl)C1=O` (racemic) [Compound 1542], the pest or weed control at 15.625 g/ha in [6], in assay [8], in [10] and in [11] was 0% each time. In addition, the pest or weed control at 62.5 g/ha in assay [6] amounted to 10%; in [8], 10%; in assay [9] it was 0%; in assay [10], 0%; in [11], 0%. The pest or weed control at 250 g/ha in assay [6] was 10%; in [8] it was 10%; in [9], 0%; in assay [10], 0%; in [11], 0%. Moreover, in assay [7], the plant injury at 15.625 g/ha was found to be 0%. In addition, the plant injury at 62.5 g/ha in assay [7] is 0%. Besides, in assay [7], the plant injury at 250 g/ha was determined as 0%.

`COc1ccc([C@H]2CNC(=O)[C@@H]2C(=O)Nc2ccccc2S(C)(=O)=O)cc1F` [Compound 721]: the plant injury at 125 g/ha in [1] (setting [12]) is 0%. For the same compound, the pest or weed control at 250 g/ha in [2] (setting [13]) came out at 0%; in assay [3] (setting [14]), 100%; in assay [4] (setting [15]), 0%; in [5] (setting [16]) it was 0%.

As to `O=C1NC[C@H](c2ccc(C3CC3)cc2)[C@H]1C(=O)Nc1ccccc1F` [Compound 727], the plant injury at 125 g/ha in assay [1] (setting [12]) amounted to 0%. For the same compound, the pest or weed control at 250 g/ha came to 0% in assay [2] (setting [13]), 75% in assay [3] (setting [14]), 25% in [4] (setting [15]) and 0% in assay [5] (setting [16]).

Take `Cc1ccc([C@H]2CN(C)C(=O)[C@@H]2C(=O)Nc2cccc(F)c2F)c(F)c1` [Compound 730]: the plant injury at 125 g/ha in [1] (setting [12]) was determined as 30%. In addition, the pest or weed control at 250 g/ha in [2] (setting [13]) was found to be 75%; in assay [3] (setting [14]) it was 95%; in [4] (setting [15]), 0%; in [5] (setting [16]), 0%.

Take `Cc1ccc([C@H]2CN(C)C(=O)[C@@H]2C(=O)Nc2ccccc2S(C)(=O)=O)cc1C` [Compound 734]: the plant injury at 125 g/ha in assay [1] (setting [12]) is 50%. Besides, the pest or weed control at 250 g/ha in [2] (setting [13]) amounted to 60%; in assay [3] (setting [14]) it was 100%; in [4] (setting [15]) it was 0%; in assay [5] (setting [16]), 0%.

`CCc1cc(CC)cc([C@H]2CN(C)C(=O)[C@@H]2C(=O)Nc2ccccc2F)c1` [Compound 735]: the plant injury at 125 g/ha in assay [1] (setting [12]) worked out at 50%. In addition, the pest or weed control at 250 g/ha stood at 60% in [2] (setting [13]), 40% in assay [3] (setting [14]), 0% in assay [4] (setting [15]) and 0% in assay [5] (setting [16]).

Turning to `CN1C[C@H](c2ccc(OC(F)F)cc2)[C@@H](C(=O)Nc2ccccc2S(C)(=O)=O)C1=O` [Compound 788], the pest or weed control at 250 g/ha in assay [2] (setting [13]) is 20%; in [3] (setting [14]), 60%; in assay [4] (setting [15]), 0%; in assay [5] (setting [16]), 0%.
